These results are taken from patent publication US12403104B2, “Compounds and methods of promoting myelination” (Case Western Reserve University, priority 2016, dated 2025).

The target of series [1] is T1, rat CYP51 (Rattus norvegicus, UniProt Q64654).
T1 construct: purchased Cypex, Inc
T1 sequence (Q64654 1-503): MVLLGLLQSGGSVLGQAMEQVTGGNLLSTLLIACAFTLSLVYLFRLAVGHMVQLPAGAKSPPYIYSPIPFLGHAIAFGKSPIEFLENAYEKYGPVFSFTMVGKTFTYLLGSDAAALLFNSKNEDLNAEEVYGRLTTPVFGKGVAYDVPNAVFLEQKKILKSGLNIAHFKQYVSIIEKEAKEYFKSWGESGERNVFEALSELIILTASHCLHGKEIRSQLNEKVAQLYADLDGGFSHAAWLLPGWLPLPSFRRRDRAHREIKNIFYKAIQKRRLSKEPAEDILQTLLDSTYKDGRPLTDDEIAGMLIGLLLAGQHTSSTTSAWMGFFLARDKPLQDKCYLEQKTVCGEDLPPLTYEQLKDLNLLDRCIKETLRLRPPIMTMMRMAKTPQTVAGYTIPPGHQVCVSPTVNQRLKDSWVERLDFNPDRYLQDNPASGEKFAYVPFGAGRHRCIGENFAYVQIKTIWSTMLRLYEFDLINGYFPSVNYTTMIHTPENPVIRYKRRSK
In words: CYP51 enzymatic assay (LC/MS quantitation of FF-MAS). Format: biochemical.
Method: Finally, 15 μl of each reaction/isopropanol mixture was injected onto a SCIEX Triple Quad 6500 LC-MS/MS system using an APCI ion source in positive ion mode with a Shimadzu UFLC-20AD HPLC and a Phenomenex

Series [2] has as its system OPCs (OPC-1 derivation). The experiment in a line: High-throughput screening of 3,000 bioactive small molecules for MBP+ oligodendrocyte formation. Conditions: 2 μM, 72 h; for % Oligos: MBP+; for fold-change in % MBP + oligodendrocytes: relative to DMSO controls of the same plate. An excerpt:
Plates were imaged on the Operetta High Content Imaging and Analysis system (PerkinElmer) and a set of 6 fields captured from each well resulting in an average of 1200 cells being scored per well. Analysis (PerkinElmer Harmony and Columbus software) began by identifying intact nuclei stained by DAPI; that is, those traced nuclei that were larger than 300 μm^2 in surface area. Each traced nucleus region was then expanded by 50% and cross-referenced with the […] (MBP) stain to identify oligodendrocyte nuclei, and from this the percentage of oligodendrocytes was calculated. In some experiments, the total process length of MBP+ oligodendrocytes was calculated as previously described.
EpiSC-derived OPCs were grown and expanded in poly-ornithine and laminin-coated flasks before harvesting for plating. Cells were dispensed in differentiation media supplemented with Noggin (R&D Systems; 100 ng/ml), Neurotrophin 3 (R&D Systems; 10 ng/ml), cAMP (Sigma; 50 μM), and IGF-1 (R&D Systems; 100 ng/ml)) using a Biotek EL406 Microplate Washer Dispenser (Biotek) equipped with 5 μL dispense cassette (Biotek), into poly-D-lysine/laminin (Sigma, L2020; 4 μg/ml)-coated sterile, 384-well, CellCarrier ultra plates (PerkinElmer), to a final density of 12,500 cells per well and allowed to attach for 45 min before addition of drug. A 3 mM stock of bioactive compound library in dimethylsulphoxide (DMSO) were prepared in an Abgene storage 384-well plate (ThermoFisher Scientific; AB1055). These were added to assay plates using a 50 nL solid pin tool attached to Janus automated workstation (Perkin Elmer), resulting in a final screening concentration of 2 μM. Cells were incubated at 37° C. for 1 hour and then T3 (Sigma; 40 ng/ml) was added to all wells except negative controls, to which FGF (20 ng/ml) was added instead. Negative controls and T3-alone were included in each assay plate. After incubation at 37° C. for 72 h, cells were fixed, washed and stained similar to 96-well OPC assay protocol, although all the washing steps were performed using a Biotek EL406 Microplate Washer Dispenser (Biotek) equipped with a 96-well aspiration manifold. Cells were stained with DAPI (Sigma; 1 μg/ml) and MBP antibody (Abeam, ab7349; 1:100). Plates were imaged on the Operetta High Content Imaging and Analysis system (PerkinElmer) and a set of 4 fields captured from each well resulting in an average of 700 cells being scored per well. Analysis was performed as in High-Content Imaging and Analysis, above. All plates for the primary screen were processed and analyzed simultaneously to minimize variability. Molecules causing more than 20% reduction in nuclear count relative to DMSO control wells were removed from consideration, and hits were called on the basis of largest fold-increase in percentage of MBP+ oligodendrocytes relative to DMSO controls within the same plate.

Series [3] concerns mouse epiblast stem cell-derived OPCs. The experiment in a line: In vitro phenotypic screening of OPCs (MBP+ oligodendrocytes at 72 h). Format: cell-based. The procedure:
Then, 40,000 cells were seeded per well in differentiation medium and allowed to attach for 30 min before addition of drug. […] Sterols were added to cells as an ethanol solution (0.2% final ethanol concentration). […] Cells were incubated under standard conditions (37° C., 5% CO2) for 3 days and fixed with 4% paraformaldehyde (PFA) in phosphate buffered saline (PBS) for 20 min. Fixed plates were washed with PBS (200 μL per well) twice, permeabilized with 0.1% Triton X-100 and blocked with 10% donkey serum (v/v) in PBS for 40 min. […] Nuclei were visualized by DAPI staining (Sigma; 1 μg/ml).

Series [4] concerns the target T2, EBP (Mus musculus, UniProt P70245).
T2 construct: active EBP was obtained from mouse microsomes; from tissue
T2 sequence (P70245 1-230): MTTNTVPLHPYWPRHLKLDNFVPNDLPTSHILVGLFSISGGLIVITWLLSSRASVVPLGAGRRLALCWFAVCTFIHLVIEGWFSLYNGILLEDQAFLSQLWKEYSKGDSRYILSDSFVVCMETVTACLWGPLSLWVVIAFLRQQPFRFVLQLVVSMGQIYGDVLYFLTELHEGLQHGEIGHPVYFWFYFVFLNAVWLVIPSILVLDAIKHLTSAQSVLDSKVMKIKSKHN
The experiment in a line: EBP enzymatic assay (GC/MS). It counts as biochemical. Conditions: 10 μM, zymostenol 25 μM.

The subject of series [5] is OPCs. In words: GC/MS-based sterol profiling in OPCs. Format: cell-based, mouse. Particulars: GC/MS; for cholesterol pathway enzyme inhibited in OPCs (from sterol profile): 24 h; for sterol levels / sterol intermediate accumulation in OPCs: 24 h treatment (siRNA 96 h).
Series [6] concerns T47D cells. Conditions: 5 days.
The mark [7] stands for this setting: listed as Raloxifene hydrochloride, HCl.

Several values for one entry are separate records, joined by “and”; a condition that tells them apart may be missing. Equal values may be shown once. Where a name gives a salt, the structure may show the parent alone.

For `CC(=O)N1CCN(c2ccc(OC[C@H]3CO[C@@](Cn4ccnc4)(c4ccc(Cl)cc4Cl)O3)cc2)CC1` (stereo in doubt) [S-trans-Ketoconazole], the “inhibition of mammalian CYP51 in vitro” value in series [1] is reported as “strikingly less effective at inhibiting mammalian CYP51”.

As for `Cl.Clc1ccc(N2CCN(Cc3c[nH]c4ncccc34)CC2)cc1` [L-745,870 hydrochloride], the “% Oligos” value in series [2] turned out to be 32.61%.

`Cl.O[Si](CCCN1CCCCC1)(c1ccc(F)cc1)C1CCCCC1` (stereo not drawn) [Hexahydro-sila-difenidol hydrochloride, p-fluoro analog]: in series [2], the “% Oligos” value was 26.76%.

Turning to `O=C(c1ccc(OCCN2CCCCC2)cc1)c1c(-c2ccc(O)cc2)sc2cc(O)ccc12` [Raloxifene HCl], the “% Oligos” value in series [2] (HCl) is given as 35.01%. Besides, in series [2] (setting [7]), the “% Oligos” value was 33.33% and the “fold-change in % MBP + oligodendrocytes” value is given as 3.77. Turning to `CC(C)CCC[C@@H](C)[C@H]1CC[C@H]2[C@@H]3CC=C4C[C@@H](O)CC[C@]4(C)[C@H]3CC[C@]12C` [cholesterol, Cholesterol], the “formation of MBP+ oligodendrocytes from OPCs” value (from here on “formation”) in series [3] is on record as “ineffective”.

For `OCCOCCN1CCN(C(c2ccccc2)c2ccc(Cl)cc2)CC1` (stereo not drawn) [hydroxyzine, Hydroxyzine], the “inhibition of EBP enzymatic activity” value in series [4] is “directly inhibiting EBP enzymatic activity”. Take Ifenprodil Tartrate: in series [2], the “cell viability (% relative to DMSO)” value is given as 103.79%, the “% Oligos” value turned out to be 41.41% and the “fold-change in % MBP + oligodendrocytes” value stood at 4.89. Moreover, in series [2] (listed as ifenprodil tartrate), the “% Oligos” value is 33.69%, the “fold-change in % MBP + oligodendrocytes” value was 3.61 and the “cell viability (% relative to DMSO)” value is 106.02%. Turning to `CN(C)CCOc1ccc(/C(=C(/CCCl)c2ccccc2)c2ccccc2)cc1` [toremifene, Toremifene], the “cholesterol pathway enzyme inhibited in OPCs (from sterol profile)” value in series [5] was “inhibited EBP”. Moreover, the “formation” value in series [3] is listed as “enhanced MBP+ oligodendrocyte generation over a wide dose range”. The “antiestrogen effects on estrogen-dependent growth” value in series [6] is reported as “comparable antiestrogen effects”.

On to `OC(Cn1cncn1)(Cn1cncn1)c1ccc(F)cc1F` [fluconazole, Fluconazole], for which the “inhibition of mammalian CYP51 in vitro” value in series [1] is recorded as “did not inhibit mammalian CYP51 in vitro”. Turning to `Clc1ccccc1C(c1ccccc1)(c1ccccc1)n1ccnc1` [Clotrimazole], in series [2], the “% Oligos” value was 34.36% and 27.93%; the “fold-change in % MBP + oligodendrocytes” value is recorded as 5.88. As for `CN1CCC[C@@H]1CCO[C@](C)(c1ccccc1)c1ccc(Cl)cc1` [clemastine, Clemastine], the “sterol levels / sterol intermediate accumulation in OPCs” value in series [5] is “induced accumulation of zymostenol and zymosterol and decreased basal sterol levels”.

On to `N[C@@H](Cc1cc(I)c(Oc2ccc(O)c(I)c2)c(I)c1)C(=O)O` [liothyronine, Liothyronine], for which the “sterol levels / sterol intermediate accumulation in OPCs” value in series [5] is listed as “minimal effects on sterol levels”. With `CC(C)CCC[C@@H](C)[C@H]1CC=C2C3=C(CC[C@@]21C)[C@@]1(C)CCC(O)CC1CC3` (stereo partly drawn) [14-dehydrozymostenol, cholesta-8,14-dien-β-ol], in series [3], the “formation” value is “enhanced the formation of MBP+ oligodendrocytes”. Consider (±)-Vesamicol, for which, in series [2], the “cell viability (% relative to DMSO)” value was 112.02% and the “% Oligos” value was 34.23%. The matching figures for Varenicline tartrate: 144.02% and 22.86%. Take `Cl.Cl.OCCOCCN1CCN(C(c2ccccc2)c2ccc(Cl)cc2)CC1` (stereo not drawn) [Hydroxyzine 2HCl]: in series [2], the “cell viability (% relative to DMSO)” value turned out to be 134.19%, the “% Oligos” value was 40.63% and the “fold-change in % MBP + oligodendrocytes” value was 4.80.

Regarding `C=C(c1ccc(C(=O)O)cc1)c1cc2c(cc1C)C(C)(C)CCC2(C)C` [bexarotene, Bexarotene], the “sterol levels / sterol intermediate accumulation in OPCs” value in series [5] was “minimal effects on sterol levels”.

Take `Clc1ccc(C(Cn2ccnc2)OCc2c(Cl)cccc2Cl)c(Cl)c1` (stereo not drawn) [Isoconazole nitrate]: the “% Oligos” value in series [2] is on record as 53.25%.

For the compound `CCN(CC)CCCCCCCCOC(=O)c1cc(OC)c(OC)c(OC)c1.Cl` [TMB-8 hydrochloride], in series [2], the “cell viability (% relative to DMSO)” value amounted to 139.42% and the “% Oligos” value was 18.47%.

Take `CN1[C@@H]2CC[C@H]1C[C@@H](OC(c1ccccc1)c1ccccc1)C2` [benztropine, Benztropine]: the “sterol levels / sterol intermediate accumulation in OPCs” value in series [5] is “induced accumulation of zymostenol and zymosterol and decreased basal sterol levels”. The “inhibition of EBP enzymatic activity” value in series [4] was “clear inhibition”. Turning to `CC(C)=CCC[C@@H](C)[C@H]1CC[C@@]2(C)C3=C(CC[C@]12C)[C@@]1(C)CC[C@H](O)C(C)(C)[C@@H]1CC3` [lanosterol, Lanosterol], the “formation” value in series [3] is listed as “enhanced formation of MBP+ oligodendrocytes in a dose-responsive fashion”.

On to `C[C@]12CC[C@@H]3c4ccc(O)cc4C[C@@H](CCCCCCCCC[S+]([O-])CCCC(F)(F)C(F)(F)F)[C@H]3[C@@H]1CC[C@@H]2O` (stereo partly drawn) [Fulvestrant], for which the “cholesterol pathway enzyme inhibited in OPCs (from sterol profile)” value in series [5] is listed as “targeted CYP51”. In the case of `CC(C)CCC[C@@H](C)[C@H]1CC[C@H]2C3=C(CC[C@]12C)[C@@]1(C)CC[C@H](O)C[C@@H]1CC3` [zymostenol, Zymostenol], the “formation” value in series [3] was “enhanced the formation of MBP+ oligodendrocytes”. In the case of `Cc1cc(NC(=O)Nc2ccc(N(C)C)cc2)c2cc(F)cc(F)c2n1` [SB408124], in series [2], the “cell viability (% relative to DMSO)” value was 106.19% and the “% Oligos” value worked out at 39.63%.

With `COc1ccc(S(=O)(=O)N2CCC(N3CCC(C)CC3)CC2)cc1` [TASIN-1, Tasin-1], the “inhibition of EBP enzymatic activity” value in series [4] is “clear inhibition”. Also, the “formation” value in series [3] was “enhanced formation of MBP+ oligodendrocytes”. `CCC(C)(C)c1ccc(CC(C)CN2C[C@@H](C)O[C@@H](C)C2)cc1` (stereo partly drawn) [amorolfine, Amorolfine]: the “formation” value in series [3] is reported as “enhanced formation of MBP+ oligodendrocytes”. `CC(=O)N1CCN(c2ccc(OC[C@@H]3CO[C@](Cn4ccnc4)(c4ccc(Cl)cc4Cl)O3)cc2)CC1` (stereo in doubt) [R-trans-Ketoconazole]: the “inhibition of mammalian CYP51 in vitro” value in series [1] is listed as “strikingly less effective at inhibiting mammalian CYP51”.
